# Experiments:
# Type in all cases: in vivo
# Conditions in all cases: application herbicide amount 320 g/ha
# [1] = tested on: directly sowed rice plant; experiment: Test Example 3: effect on crop by foliage application, Wagner pot (symbol b)
# Description: (§1) Herbicidal Effect Test by Foliage Application
# After alluvial soil was placed into 1/10000 are of Wagner pot, water was poured and mixed to form a submerged condition having a water depth of 0.1 cm to 0.5 cm. Seeds of Echinochloa crus-galli var. crus-galli, Leptochloa chinensis, Cyperus difformis, and rice were sowed and the pot was placed in the greenhouse of 25° C. to 30° C. to grow the plants.
# [2] = tested on: Echinochloa crus-galli var. crus-galli; experiment: Test Example 3: herbicidal effect by foliage application, Wagner pot (symbol H)
# Description: as §1
# (§2) After alluvial soil was placed into 1/10000 are of Wagner pot, water was poured and mixed to form a submerged condition having a water depth of 0.1 cm to 0.5 cm. Seeds of Echinochloa crus-galli var. crus-galli, Leptochloa chinensis, Cyperus difformis, and rice were sowed and the pot was placed in the greenhouse of 25° C. to 30° C. to grow the plants. After the plants were grown for 14 days, the emulsion agent of the compound of the present invention prepared in accordance with Formulation Example 2 was diluted with water so as to be a predetermined herbicide amount and the diluted emulsion agent was uniformly applied to a foliage part with a small-size spray. 3 weeks later from the herbicide application, the effect to each plant was investigated in accordance with the criteria of Test Example 1.
# [3] = tested on: Cyperus difformis; experiment: Test Example 3: herbicidal effect by foliage application, Wagner pot (symbol E)
# Description: as §1, §2
# [4] = tested on: Leptochloa chinensis; experiment: Test Example 3: herbicidal effect by foliage application, Wagner pot (symbol D)
# Description: as §1, §2
# [5] = tested on: Echinochloa oryzacola Vasing.; experiment: Test Example 1: herbicidal activity, application before weed generation in submerged conditions (symbol A)
# Excerpt: (§3) Herbicidal Activity Test by Application Before Weed Generation in Submerged Conditions
# (§4) After alluvial soil was placed into 1/10000 are of Wagner pot, water was poured and mixed to form a submerged condition having a water depth of 4 cm. Seeds of Echinochloa oryzacola Vasing., Scirpus juncoides, and Monochoria vaginalis were sowed in a mixed manner in the above pot and thereafter 2.5 leaf stage rice plant seedlings were transplanted thereto. On the day of sowing seeds, the emulsion agent of the compound of the present invention prepared in accordance with Formulation Example 2 was diluted with water so as to be a predetermined herbicide amount and the diluted emulsion agent was applied to the surface of the water. The pot was placed in a greenhouse of 25° C. to 30° C. to grow plant. 3 weeks later from the herbicide application, the effect to each plant was investigated in accordance with the following criteria.
# (§5) 5 Herbicidal ratio of 90% or more (almost completely withered)
# (§6) 4 Herbicidal ratio of 70% or higher and lower than 90%
# (§7) 3 Herbicidal ratio of 40% or higher and lower than 70%
# (§8) 2 Herbicidal ratio of 20% or higher and lower than 40%
# (§9) 1 Herbicidal ratio of 5% or higher and lower than 20%
# (§10) 0 Herbicidal ratio of 5% or lower (almost no effect)
# [6] = tested on: Monochoria vaginalis; experiment: Test Example 1: herbicidal activity, application before weed generation in submerged conditions (symbol C)
# Excerpt: as §3, §4, §5, §6, §7, §8, §9, §10
# [7] = tested on: transplanted rice plant; experiment: Test Example 1: effect on crop, application before weed generation in submerged conditions (symbol a)
# Description: as §3
# as §4, with “On the day of sowing seeds, the emulsion agent of the compound of the present invention prepared in accordance with Formulation Example 2 was diluted with water so as to be a predetermined herbicide amount and the diluted emulsion agent was applied to the surface of the water.” left out
# as §5, §6, §7, §8, §9, §10
# [8] = tested on: Scirpus juncoides; experiment: Test Example 1: herbicidal activity, application before weed generation in submerged conditions (symbol B)
# Excerpt: as §3, §4, §5, §6, §7, §8, §9, §10
Compound,"effect on crop b (directly sowed rice plant), grade 0-5 [1]","herbicidal effect on H (Echinochloa crus-galli var. crus-galli), grade 0-5 [2]","herbicidal effect on E, grade 0-5 [3]","herbicidal effect on D (Leptochloa chinensis), grade 0-5 [4]","Herbicidal effect grade, A: Echinochloa oryzacola Vasing. [5]","Herbicidal effect grade, C: Monochoria vaginalis [6]","Effect grade on crop, a: transplanted rice plant [7]","Herbicidal effect grade, B: Scirpus juncoides [8]",b (directly sowed rice plant) effect on crop grade ([1]; Table 24),H (Echinochloa crus-galli var. crus-galli) herbicidal effect grade ([2]; Table 24),E herbicidal effect grade ([3]; Table 24),D (Leptochloa chinensis) herbicidal effect grade ([4]; Table 24)
CON=C(CC1CC(O)=C(c2c(C)cc(C)cc2C)C1=O)c1ccc(C)cc1 (centres unmarked) [1-164],4 (Herbicidal ratio of 70% or higher and lower than 90%),2 (Herbicidal ratio of 20% or higher and lower than 40%),0 (Herbicidal ratio of 5% or lower (almost no effect)),3 (Herbicidal ratio of 40% or higher and lower than 70%),,,,,,,,
CON=C(C)CC1CC(OC(=O)N(c2ccccc2)c2ccccc2)=C(c2c(C)cc(C)cc2C)C1=O (centres unmarked) [1-157],0 (Herbicidal ratio of 5% or lower (almost no effect)),0 (Herbicidal ratio of 5% or lower (almost no effect)),,4 (Herbicidal ratio of 70% or higher and lower than 90%),,,,,,,,
CC(=O)CC1CC(O)=C(c2c(C)cc(C=Cc3ccccc3)cc2C)C1=O (centres unmarked) [7-023],0 (Herbicidal ratio of 5% or lower (almost no effect)),0 (Herbicidal ratio of 5% or lower (almost no effect)),0 (Herbicidal ratio of 5% or lower (almost no effect)),5 (Herbicidal ratio of 90% or more (almost completely withered)),2 (Herbicidal ratio of 20% or higher and lower than 40%),0 (Herbicidal ratio of 5% or lower (almost no effect)),1 (Herbicidal ratio of 5% or higher and lower than 20%),0 (Herbicidal ratio of 5% or lower (almost no effect)),,,,
CON=C(CCl)CC1CC(OC)=C(c2c(C)cc(C)cc2C)C1=O (centres unmarked) [1-077],,,,,1 (Herbicidal ratio of 5% or higher and lower than 20%),0 (Herbicidal ratio of 5% or lower (almost no effect)),1 (Herbicidal ratio of 5% or higher and lower than 20%),2 (Herbicidal ratio of 20% or higher and lower than 40%),,,,
COC(=O)C(C(C)=O)C1CC(O)=C(c2c(F)cc(Br)cc2OC)C1=O (centres unmarked) [7-028],,,,,,,,,0 (Herbicidal ratio of 5% or lower (almost no effect)),0 (Herbicidal ratio of 5% or lower (almost no effect)),0 (Herbicidal ratio of 5% or lower (almost no effect)),0 (Herbicidal ratio of 5% or lower (almost no effect))

# Source: patent US11000033B2, “Ketone or oxime compound, and herbicide” (NISSAN CHEMICAL CORPORATION, priority 2014, dated 2021)
